# Patent publication US10828315B2 (Madrigal Pharmaceuticals, Inc., priority 2013, dated 2020)
# Structures can show the parent of a compound that is named as a salt. Where two headings read alike, the source gives them in different places.
# Legend:
# HER2 = HER2 degradation assay with BT-474 cell line (Example 12, FACS); assay type: cell-based, human
# Text: HER2 has emerged as a key target for anticancer drugs due to its intrinsic involvement in the phosphatidylinositol-3-kinase-Akt/protein kinase B (PI3K-Akt) and the mitogen-activated protein kinase (MAPK) pathways, both of which suppress apoptosis and promote tumor cell survival, gene transcription, angiogenesis, cellular proliferation, migration, mitosis, and differentiation. The degradation of HER2 is a measure of efficacy of anticancer therapeutics that target Hsp90. Accordingly, the SDC-TRAP molecules of the invention that comprise a binding moiety that binds Hsp90 were tested in the following HER2 degradation assay.
# BT-474 cells (human breast cancer cell line ATCC HTB-20) were obtained from ATCC and seeded into 12-well tissue culture plates at 0.2×10^6/1.8 mL/well. […] Each test compound was titrated in 4-fold dilutions from 5 μM to 78 nM with DMSO and 200 μL of the titration was added to each well of the cell plate. The DMSO final concentration was 0.2%. Cells were incubated overnight at 37° C. in 5% CO2.
# Media was decanted from the plate, cells were washed 1× in PBS. 400 μL trypsin (EDTA) per well was added, and the cells were incubated for 2 to 3 minutes. Cells were collected into FACS tubes containing 1 ml culture medium to neutralize the trypsin and were centrifuged for 5 minutes at 1200 rpm. Supernatant was decanted and the cells were resuspended in 5 μL FITC (anti HER2/nu)/200 μL staining buffer (1×PBS+1% FBS+0.05% Sodium Azide)/tube. Controls were 5 μL IgG isotype control and staining buffer only. Tubes were incubated for 30 minutes in the dark at room temperature. 1 mL staining buffer was added to each tube and the tubes were centrifuged for 6 minutes at 1200 rpm. The supernatant was decanted and 300 μL staining buffer was added to each tube, which was store at 4° C. fpr FACS (cytometer) analysis. The cytometer readout was normalized and the potency of each compound is evaluated with IC50 calculated with XLfit™ software.
# [1] = Mouse plasma stability protocol, up to 1 h (Examples 16-18); conditions: % Remaining of parent after 1 h incubation in mouse plasma at 37° C. (10 μM)
Compound,IC50 (HER2) [µM],% Remaining (1 h) [1] [%],also measured
"CC(C)c1cc(-c2nnc(O)n2-c2ccc(CN3CCN(C(=O)Oc4ccc5c(c4)C[C@@H](CCCCCCCCC[S+]([O-])CCCC(F)(F)C(F)(F)F)[C@@H]4[C@@H]5CC[C@]5(C)[C@@H](O)CC[C@@H]45)CC3)cc2)c(O)cc1O (stereo partly drawn) [SDC-TRAP-0148, (7R,8R,9S,13S,14S,17S)-17-hydroxy-13-methyl-7-(9-((4,4,5,5,5-pentafluoropentyl)sulfinyl)nonyl)-7,8,9,11,12,13,14,15,16,17-decahydro-6H-cyclopenta[a]phenanthren-3-yl 4-(4-(3-(2,4-dihydroxy-5-isopropylphenyl)-5-hydroxy-4H-1,2,4-triazol-4-yl)benzyl)piperazine-1-carboxylate]",3.04,–,–
"CCc1c2c(nc3ccc(OC(=O)N4CCC(Oc5ccc(-n6c(O)nnc6-c6cc(C(C)C)c(O)cc6O)cc5)CC4)cc13)-c1cc3c(c(=O)n1C2)COC(=O)[C@]3(O)CC [SDC-TRAP-0011, (S)-4,11-diethyl-4-hydroxy-3,14-dioxo-3,4,12,14-tetrahydro-1H-pyrano[3′,4′:6,7]indolizino[1,2-b]quinolin-9-yl 4-(4-(3-(2,4-dihydroxy-5-isopropylphenyl)-5-hydroxy-4H-1,2,4-triazol-4-yl)phenoxy) piperidine-1-carboxylate]",> 5,–,–
"CCc1c2c(nc3ccc(O)cc13)-c1cc3c(c(=O)n1C2)COC(=O)[C@@]3(CC)OC(=O)N(C)CCCN1CCN(Cc2ccc(-n3c(O)nnc3-c3cc(C(C)C)c(O)cc3O)cc2)CC1 [SDC-TRAP-0084, (S)-4,11-diethyl-9-hydroxy-3,14-dioxo-3,4,12,14-tetrahydro-1H-pyrano[3′,4′:6,7]indolizino[1,2-b]quinolin-4-yl (3-(4-(4-(3-(2,4-dihydroxy-5-isopropylphenyl)-5-hydroxy-4H-1,2,4-triazol-4-yl)benzyl)piperazin-1-yl)propyl)(methyl)carbamate]",1.13,–,–
"CCc1c2c(nc3ccc(O)cc13)-c1cc3c(c(=O)n1C2)COC(=O)[C@@]3(CC)OC(=O)N1CCC(Oc2ccc(-n3c(O)nnc3-c3cc(C(C)C)c(O)cc3O)cc2)CC1 [SDC-TRAP-0012, (S)-4,11-diethyl-9-hydroxy-3,14-dioxo-3,4,12,14-tetrahydro-1H-pyrano[13′,4′:6,7]indolizino[1,2-b]quinolin-4-yl-4-(4-(3-(2,4-dihydroxy-5-isopropylphenyl)-5-hydroxy-4H-1,2,4-triazol-4-yl)phenoxy)piperidine-1-carboxylate hydrochloride]",> 5,–,–
"CCNC(=O)c1nnc(-c2cc(C(C)C)c(O)cc2O)n1-c1ccc(CN2CCC(C(=O)N(C)CCC(=O)OC3(CC)C(=O)OCc4c3cc3n(c4=O)Cc4c-3nc3ccc(O)cc3c4CC)CC2)cc1 (centres unmarked) [SDC-TRAP-0100, 4,11-Diethyl-9-hydroxy-3,14-dioxo-3,4,12,14-tetrahydro-1H-pyrano[3′,4′:6,7]indolizino[1,2-b]quinolin-4-yl 3-(1-(4-(3-(2,4-dihydroxy-5-isopropylphenyl)-5-(ethylcarbamoyl)-4H-1,2,4-triazol-4-yl)benzyl)-N-methylpiperidine-4-carboxamido)propanoate]",0.08,–,–
"CCc1c2c(nc3ccc(OC(=O)N4CCC(N5CCN(c6ccc(-n7c(O)nnc7-c7cc(C(C)C)c(O)cc7O)cc6)CC5)CC4)cc13)-c1cc3c(c(=O)n1C2)COC(=O)C3(O)CC (centres unmarked) [SDC-TRAP-0101, 4,11-diethyl-4-hydroxy-3,14-dioxo-3,4,12,14-tetrahydro-1H-pyrano[3′,4′:6,7]indolizino[1,2-b]quinolin-9-yl 4-(4-(4-(3-(2,4-dihydroxy-5-isopropylphenyl)-5-hydroxy-4H-1,2,4-triazol-4-yl)phenyl)piperazin-1-yl)piperidine-1-carboxylate]",0.28,–,–
"CCOC(=O)c1nnc(-c2cc(C(C)C)c(O)cc2O)n1-c1ccc(CN2CCC(C(=O)N[C@H]3C[C@H](O[C@H]4C[C@](O)(C(=O)CO)Cc5c(O)c6c(c(O)c54)C(=O)c4c(OC)cccc4C6=O)O[C@@H](C)[C@H]3O)CC2)cc1 [SDC-TRAP-0142, ethyl-5-(2,4-dihydroxy-5-isopropylphenyl)-4-(4-((4-(((2S,3S,4S,6R)-3-hydroxy-2-methyl-6-(((1S,3S)-3,5,12-trihydroxy-3-(2-hydroxyacetyl)-10-methoxy-6,11-dioxo-1,2,3,4,6,11-hexahydrotetracen-1-yl)oxy)tetrahydro-2H-pyran-4-yl)carbamoyl)piperidin-1-yl)methyl)phenyl)-4H-1,2,4-triazole-3-carboxylate]",–,–,"IC50 (HER2; BT-474 cells, overnight): > 10 µM"
"CCc1c2c(nc3ccc(O)cc13)-c1cc3c(c(=O)n1C2)COC(=O)C3(CC)OC(=O)N(C)Cc1ccc(OC(=O)N2CCN(Cc3ccc(-n4c(O)nnc4-c4cc(C(C)C)c(O)cc4O)cc3)CC2)cc1 (centres unmarked) [SDC-TRAP-0356, 4-(((((4,11-diethyl-9-hydroxy-3,14-dioxo-3,4,12,14-tetrahydro-1H-pyrano[3′,4′:6,7]indolizino[1,2-b]quinolin-4-yl)oxy)carbonyl)(methyl)amino)methyl)phenyl 4-(4-(3-(2,4-dihydroxy-5-isopropylphenyl)-5-hydroxy-4H-1,2,4-triazol-4-yl)benzyl)piperazine-1-carboxylate]",–,70.9,–
"CCc1c2c(nc3ccc(OC(=O)N(C)CC(=O)N4CCC(CCn5ccc6cc(-n7c(O)nnc7-c7cc(C(C)C)c(O)cc7O)ccc65)CC4)cc13)-c1cc3c(c(=O)n1C2)COC(=O)[C@]3(O)CC [SDC-TRAP-0337, (S)-4,11-diethyl-4-hydroxy-3,14-dioxo-3,4,12,14-tetrahydro-1H-pyrano[3′,4′: 6,7]indolizino[1,2-b]quinolin-9-yl (2-(4-(2-(5-(3-(2,4-dihydroxy-5-isopropylphenyl)-5-hydroxy-4H-1,2,4-triazol-4-yl)-1H-indol-1-yl)ethyl)piperidin-1-yl)-2-oxoethyl)(methyl)carbamate]",–,77.3,–
"CCc1c2c(nc3ccc(OC(=O)N4CCC(S(=O)(=O)N5CCC(CCn6ccc7cc(-n8c(O)nnc8-c8cc(C(C)C)c(O)cc8O)ccc76)CC5)CC4)cc13)-c1cc3c(c(=O)n1C2)COC(=O)[C@]3(O)CC [SDC-TRAP-0336, (S)-4,11-diethyl-4-hydroxy-3,14-dioxo-3,4,12,14-tetrahydro-1H-pyrano[3′,4′:6,7]indolizino[1,2-b]quinolin-9-yl 4-((4-(2-(5-(3-(2,4-dihydroxy-5-isopropylphenyl)-5-hydroxy-4H-1,2,4-triazol-4-yl)-1H-indol-1-yl)ethyl)piperidin-1-yl)sulfonyl)piperidine-1-carboxylate]",–,31.7,–
"CCNC(=O)c1nnc(-c2cc(C(C)C)c(O)cc2O)n1-c1ccc2c(c1)CN(C(=O)Oc1ccc3nc4c(c(CC)c3c1)Cn1c-4cc3c(c1=O)COC(=O)C3(O)CC)C2 (centres unmarked) [SDC-TRAP-0392, 4,11-diethyl-4-hydroxy-3,14-dioxo-3,4,12,14-tetrahydro-1H-pyrano[3′,4′:6,7]indolizino[1,2-b]quinolin-9-yl 5-(3-(2,4-dihydroxy-5-isopropylphenyl)-5-(ethylcarbamoyl)-4H-1,2,4-triazol-4-yl)isoindoline-2-carboxylate]",–,44.7,–
"CCc1c2c(nc3ccc(O)cc13)-c1cc3c(c(=O)n1C2)COC(=O)[C@@]3(CC)OC(=O)CN1CCC(CCn2ccc3cc(-n4c(O)nnc4-c4cc(C(C)C)c(O)cc4O)ccc32)CC1 [SDC-TRAP-0107, (S)-4,11-diethyl-9-hydroxy-3,14-dioxo-3,4,12,14-tetrahydro-1H-pyrano[3′,4′:6,7]indolizino[1,2-b]quinolin-4-yl 2-(4-(2-(5-(3-(2,4-dihydroxy-5-isopropylphenyl)-5-hydroxy-4H-1,2,4-triazol-4-yl)-1H-indol-1-yl)ethyl)piperidin-1-yl)acetate]",–,111,–
"CCNC(=O)c1nnc(-c2cc(C(C)C)c(O)cc2O)n1-c1ccc(C(=O)N2CCN(c3cc(C)c(OC(=O)Nc4cccc5c4C(=O)N(C4CCC(=O)NC4=O)C5=O)c(C)c3)CC2)cc1 (centres unmarked) [SDC-TRAP-0400, 4-(4-(4-(3-(2,4-dihydroxy-5-isopropylphenyl)-5-(ethylcarbamoyl)-4H-1,2,4-triazol-4-yl)benzoyl)piperazin-1-yl)-2,6-dimethylphenyl (2-(2,6-dioxopiperidin-3-yl)-1,3-dioxoisoindolin-4-yl)carbamate]",–,70.4,–
"CCNC(=O)c1nnc(-c2cc(C(C)C)c(O)cc2O)n1-c1ccc(S(=O)(=O)N2CCC(C(=O)N3CCN(C(=O)Oc4ccc5nc6c(c(CC)c5c4)Cn4c-6cc5c(c4=O)COC(=O)C5(O)CC)CC3)CC2)cc1 (centres unmarked) [SDC-TRAP-0383, 4,11-diethyl-4-hydroxy-3,14-dioxo-3,4,12,14-tetrahydro-1H-pyrano[3′,4′:6,7]indolizino[1,2-b]quinolin-9-yl 4-(1-((4-(3-(2,4-dihydroxy-5-isopropylphenyl)-5-(ethylcarbamoyl)-4H-1,2,4-triazol-4-yl)phenyl)sulfonyl)piperidine-4-carbonyl)piperazine-1-carboxylate]",–,47.6,–
